From patent US10562898B2, “Substituted benzenesulfonamides as inhibitors of alpha-4 beta-7 integrin activity” (EA PHARMA CO., LTD., priority 2016, dated 2020)

System: mouse colitis model induced by transfer of IL-10−/− cells
Test: Mouse colitis model induced by transfer of IL-10−/− cells, intestinal tract weight
Format: in vivo
Settings: oral, three times per day for 14 days
Procedure: As a method for preparing mouse colitis model induced by transfer of IL-10^−/− cells, used was the method described in J Crohns Colitis. 2013 December; 7 (11): e533-42.
Each test substance was suspended in a 0.5% methylcellulose aqueous solution to be contained at 30, 10, 3, or 1 mg/mL, and was orally administered with Terumo syringe (1 mL) and a metal probe for mouse in a dose of 10 ml per kilo gram of animal body weight. The administration was performed three times per day for 14 days.
An intestinal tract weight as a medicinal effect indicator was measured by the following method. On the final necropsy day, the large intestine from the anus to just before the cecum was taken out, the content in the intestinal tract was washed away with physiological saline, the moisture was lightly removed, and the weight of the large intestine was measured. The inhibitory rate (%) in each of compound administered groups was figured out based on the average value of intestinal tract weights per group under the setting in which a colitis onset group was scored at 0% and a normal group was scored at 100%.

SMILES | Inhibitory Rate (%) (intestinal tract weight) (Dose 10 mg/kg) | Inhibitory Rate (%) (intestinal tract weight) (Dose 100 mg/kg) | Inhibitory Rate (%) (intestinal tract weight) (Dose 30 mg/kg) | Inhibitory Rate (%) (intestinal tract weight) (Dose 300 mg/kg)
Cc1c(C)n(C)c(=O)n(-c2ccc(C[C@H](NC(=O)c3cc(F)c(NS(=O)(=O)c4ccc(NC(=O)C(C)(C)C)cc4)cc3F)C(=O)OC(C)C)cc2)c1=O [Compound P2] | 24.6 | 52.2 |  | 
CCOC(=O)[C@H](Cc1ccc(-n2c(=O)cc(C)n(C)c2=O)nc1)NC(=O)c1cc(F)c(NS(=O)(=O)c2ccc(NC(=O)C(C)(C)C)cc2)cc1F [Compound P52] |  |  | 39.9 | 42.8
CC(C)OC(=O)[C@H](Cc1ccc(-n2c(=O)ccn(C)c2=O)nc1)NC(=O)c1cc(F)c(NS(=O)(=O)c2ccc(NC(=O)C(C)(C)C)cc2)cc1F [Compound P59] |  |  | 46.7 | 58.6
CCOC(=O)[C@H](Cc1ccc(-n2c(=O)c(C)cn(C)c2=O)nc1)NC(=O)c1cc(F)c(NS(=O)(=O)c2ccc(NC(=O)C(C)(C)C)cc2)cc1F [Compound P69] |  |  | 36.1 | 51.1
Cc1cn(C)c(=O)n(-c2ccc(C[C@H](NC(=O)c3cc(F)c(NS(=O)(=O)c4ccc(NC(=O)C(C)(C)C)cc4)cc3F)C(=O)OCC(C)C)cn2)c1=O [Compound P73] |  |  | 21.9 | 38.8
CC(C)COC(=O)[C@H](Cc1ccc(-n2c(=O)ccn(C)c2=O)nc1)NC(=O)c1cc(F)c(NS(=O)(=O)c2ccc(NC(=O)C(C)(C)C)cc2)cc1F [Compound P74] |  |  | 12.5 | 47.1
Cc1cc(=O)n(-c2ccc(C[C@H](NC(=O)c3cc(F)c(NS(=O)(=O)c4ccc(NC(=O)C(C)(C)C)cc4)cc3F)C(=O)OCC(C)C)cn2)c(=O)n1C [Compound P97] |  |  | 17.5 | 43.6
